Assay results as given in ChEMBL document CHEMBL1201862, “PubChem BioAssay data set” (2004).
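Where inhibition never reached the appropriate level, the endpoint shown equals the highest concentration tested. Otherwise, values were interpolated linearly from a five-concentration, 48-hour dose response in 96-well plates. GI50 = concentration required for 50% inhibition of growth.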 Activity calls are given as the source filed them. Rule as the data show it: active = GI50 up to about 1.1 µM and inactive = higher.

Columns and labels:
Assay in all cases: inhibition of tumour cell growth, NCI panel, 48 h
[1] = test system: SN12C
[2] = test system: MOLT-4
[3] = test system: NCI-H460
[4] = test system: MDA-MB-435
[5] = test system: COLO 205
[6] = test system: NCI-H23
[7] = test system: TK-10
[8] = test system: M14
[9] = test system: SNB-19
[10] = test system: LOX IMVI
[11] = test system: UACC-257
[12] = test system: 786-0
[13] = test system: HL-60
[14] = test system: MCF7
[15] = test system: SF-539
[16] = test system: MDA-N
[17] = test system: Malme-3M
[18] = test system: IGROV-1
[19] = test system: SK-MEL-2
[20] = test system: PC-3

Measured: GI50

COc1cc(C(=O)N(Cc2cccnc2)C(=S)N(Cc2cccnc2)C(=O)c2cc(OC)c(OC)c(OC)c2)cc(OC)c1OC
inactive: [1] 37.9 µM | [2] 54.2 µM | [3] 94 µM | [4] 31 µM | [5] 35 µM | [6] 49.2 µM | [7] 89.1 µM | [8] 94.8 µM | [9] > 100 µM | [10] 30.7 µM | [11] 70 µM | [12] 36.2 µM | [13] 37.2 µM | [14] 19.9 µM | [15] > 100 µM | [16] 36 µM | [17] 89.7 µM

NC(=O)C(=O)n1ncc(Cl)c(Cl)c1=O
inactive: [1] 18.6 µM | [2] 3.59 µM | [3] 74.8 µM | [4] > 100 µM | [5] > 32.9 µM | [6] 32.7 µM | [7] 31.8 µM | [8] 28.8 µM | [9] > 79.3 µM | [18] > 56.6 µM | [10] 22.4 µM | [11] 34 µM | [12] 22.2 µM | [13] 5.26 µM | [14] 57.3 µM | [15] 40.2 µM | [19] 23.8 µM | [16] > 100 µM | [17] 17.5 µM

N#CC(C#N)=CNC(=S)Nc1ccc(S(=O)(=O)Nc2nccs2)cc1
inactive: [1] > 100 µM | [2] > 100 µM | [3] > 100 µM | [4] > 100 µM | [5] > 100 µM | [6] > 100 µM | [7] > 100 µM | [8] > 100 µM | [9] > 100 µM | [18] > 100 µM | [10] > 100 µM | [11] > 100 µM | [12] > 100 µM | [13] > 100 µM | [14] > 100 µM | [15] > 100 µM | [19] > 100 µM | [16] > 100 µM

Cc1cc2c(c(C(=O)NCCC(=O)N[C@@H](C)C(=O)OCc3ccccc3)c1)Oc1c(cc(C)cc1C(=O)NCCC(=O)N[C@@H](C)C(=O)OCc1ccccc1)S2
inactive: [1] > 100 µM | [2] > 100 µM | [3] > 100 µM | [4] > 100 µM | [5] > 100 µM | [6] > 100 µM | [20] > 100 µM | [8] > 100 µM | [9] > 100 µM | [18] > 100 µM | [11] > 100 µM | [12] > 100 µM | [14] > 100 µM | [19] > 100 µM | [16] > 100 µM | [17] > 100 µM

C[n+]1cccc2ccc(OC(=O)c3ccccc3)cc21
inactive: [1] > 100 µM | [2] > 100 µM | [4] > 100 µM | [5] > 100 µM | [6] > 100 µM | [7] > 100 µM | [8] > 100 µM | [9] > 100 µM | [18] > 100 µM | [10] > 100 µM | [11] > 100 µM | [12] > 100 µM | [13] > 10 µM | [14] > 100 µM | [15] > 100 µM | [19] > 100 µM | [16] > 100 µM | [17] > 100 µM

CC(=O)Nc1ccc2c(C)c3c(nc2n1)[nH]c1ccccc13
inactive: [1] 30.5 µM | [2] 19.7 µM | [3] 21.1 µM | [4] 29.6 µM | [5] 17.2 µM | [6] 25.2 µM | [7] 55.5 µM | [20] 27.2 µM | [8] 25.4 µM | [18] 22.2 µM | [10] 16.4 µM | [11] 32.9 µM | [12] 35.4 µM | [14] 19.2 µM | [15] 57.3 µM | [19] 22.6 µM | [16] 18.1 µM

NS(=O)(=O)c1nnc(NC(=O)c2ccccc2)s1
inactive: [1] > 100 µM | [2] > 100 µM | [3] > 100 µM | [4] > 100 µM | [5] > 100 µM | [6] > 100 µM | [7] > 100 µM | [8] > 100 µM | [9] > 100 µM | [10] > 100 µM | [11] > 100 µM | [12] > 100 µM | [14] > 100 µM | [15] > 100 µM | [19] > 100 µM | [16] > 100 µM | [17] > 100 µM

c1cc2c(cc1C1=NCCN1)c1cc(C3=NCCN3)ccc1n2CC1CCCCC1
inactive: [1] 14 µM | [2] 5.05 µM | [3] 14.7 µM | [4] 18 µM | [5] 1.74 µM | [6] 17.1 µM | [7] 51.3 µM | [20] 21.5 µM | [8] 33.6 µM | [9] 5.9 µM | [18] 18.2 µM | [10] 16.3 µM | [11] 22.7 µM | [12] 19.4 µM | [13] 14.3 µM | [15] 3.65 µM | [19] 15.7 µM | [16] 23.6 µM | [17] 8.11 µM

CC1(C)OC[C@@H]([C@H](C=O)OCc2ccccc2)O1
inactive: [1] > 100 µM | [2] > 100 µM | [4] > 100 µM | [5] > 100 µM | [6] > 100 µM | [7] > 100 µM | [20] > 100 µM | [8] > 100 µM | [9] > 100 µM | [18] > 100 µM | [10] > 100 µM | [11] > 100 µM | [12] > 100 µM | [14] > 100 µM | [19] > 100 µM | [16] > 100 µM | [17] > 100 µM

COc1cc2nn(-c3ccccc3)nc2c2nonc12
inactive: [1] > 100 µM | [2] > 100 µM | [3] > 100 µM | [4] > 100 µM | [5] > 100 µM | [6] > 100 µM | [7] > 100 µM | [20] > 100 µM | [8] > 100 µM | [9] > 100 µM | [18] > 100 µM | [10] 38.8 µM | [11] > 100 µM | [12] 91.6 µM | [13] > 100 µM | [15] 87.5 µM | [19] > 100 µM | [16] > 100 µM | [17] > 100 µM

CC1OC2OC3C(OCC(O)C3O)OC(=O)[C@]34CCC(C)(C)CC3C3=CCC5[C@@]6(C)C[C@H](O)[C@H](OC7OC(CO)C(O)C(O)C7OC7OC(COC(=O)CC(C)(O)CC(=O)OC1C(OC1OC(CO)C(O)C(O)C1O)C2O)C(O)C(O)C7O)[C@@](C)(CO)C6CC[C@@]5(C)[C@]3(C)CC4 (stereo partly specified)
inactive: [1] 4.98 µM | [2] 2.98 µM | [3] 9.55 µM | [4] 1.91 µM | [5] 2.23 µM | [6] 1.51 µM | [7] 1.85 µM | [20] 1.95 µM | [8] 2.51 µM | [9] 5.81 µM | [18] 3.9 µM | [10] 3.27 µM | [11] 1.64 µM | [12] 2.84 µM | [13] 1.44 µM | [15] 5.46 µM | [19] 1.58 µM | [16] 1.44 µM | [17] 2.41 µM
